The values that follow come from patent US20250090552A1, “MESALAMINE PHARMACEUTICAL FORMULATIONS AND METHODS OF USE THEREOF” (Intact Therapeutics, Inc., priority 2022, published 2025).

Format in all cases: physicochemical
Series [1] is described as follows: Gelation temperature (Tg/Tgel) of diluent and reconstituted formulation, initial and on stability storage. The protocol:
The target for the 2 compartment formulations: • Gelation temperature 30-37 C • Gelation time—less than 5 minutes • Reconstitution time—less than 1 minutes • Viscosity at RT—less than 3000 cps • Reconstituted formulation should be stable for at least 3 hours
To understand the reproducibility of the gelation temperature, multiple batches were prepared and stability was monitored. In addition to this in one of batch, source of Mesalamine is varied to understand its impact on the various physical parameters.
During the stability study, only gelation temperature and the pH of the reconstituted formulation was monitored.
Formulation with 2% Lipoid S 100 has been considered as the lead formula. Reproducible batches with batch size (3-4 Kg) were manufactured and stability was monitored. These batches were packed into different packaging material MoC to understand its impact on the physical properties.

The nature of series [2]: Stability of one-part formulations stored at 60° C. As to conditions: after preparation of one-part formulations; oxidation in an aqueous solution.
A short description of series [3]: Excipient compatibility study (gelation temperature, constant 15% poloxamer 407). Particulars: change from initial. The protocol:
Excipients were studied for compatibility. Constant—15% poloxamer 407 was used. The compatibility study was carried out with the following excipients: Mesalamine—6.67%; Transcutol—10%; EDTA—0.1%; Polocarbophil—0.25%+Tris—0.15%; TPGS—0.2%; NaCl—0.5%; Sodium metabisulfite—0.2%; PVA 30 CPS—1%; Kollidon 30-1%. The following lipids were investigated: DSPC—0.5%+DPCC—0.5%; Phospholipon 90G—1%; Lipoid S 100-1%; Phospholipon 90H—1%; Lecithin—1%. The following combination of poloxamer grades was also studied Poloxamer 188-1.5, 2.5 and 5%. No or marginal impact (1-2° C. from initial) was found for the following excipients: Transcutol, EDTA, TPGS, NaCl, and PVA. Moderate impact (2-5° C. from initial) was found with Mesalamine. […] No or marginal impact (1-2° C. from initial) was found in combinations with DSPC+DPCC, Phospholipon 90 G, and Lipoid S 100. […] All poloxamer combinations were stable for 28 days.

Where only a bound is given, the exact number is not on record here.

As for `Cc1cc(C(C)(C)C)c(O)c(C(C)(C)C)c1` [BHT], the “effect of additive on gelation temperature” value in series [1] was “lowers the gelation temperature”.

As to `Nc1ccc(O)c(C(=O)O)c1` [Mesalamine, 5-aminosalicylic acid], the “time to turn brown” value in series [2] is recorded as not above 3 days.

As for `O=S([O-])S(=O)(=O)[O-].[Na+].[Na+]` [sodium metabisulfite], in series [3], the “impact on gelation temperature” value is given as “Significant impact”.
